Laboratory results taken from US11331299B2, “Medicinal use of serrulatane diterpenes” (The University of Sydney, priority 2016, dated 2022).
pEC50, pIC50: −log10 of the molar value. Like-named read-outs stand apart in the source and are kept apart here.

Tests used:
[1] = target: receptors (Bioprint panel) (Homo sapiens, UniProt P03372); assay: biochemical; format: binding; conditions: Estrogen ER alpha (h) (agonist radioligand); 10 μM; read-out: % Inhibition of Control Specific Binding
[2] = target: receptors (Bioprint panel) (Homo sapiens, UniProt P18089); assay: biochemical; format: binding; conditions: […] alpha 2B (h) (antagonist radioligand); 10 μM; read-out: % Inhibition of Control Specific Binding
[3] = target: receptors (Bioprint panel) (Homo sapiens, UniProt P25103); assay: biochemical; format: binding; conditions: NEUROKININ NK1 (h) (agonist radioligand); 10 μM; read-out: % Inhibition of Control Specific Binding
[4] = target: receptors (Bioprint panel) (Homo sapiens, UniProt P25929); assay: biochemical; format: binding; conditions: NE[…] Y1 (h) (agonist radioligand); 10 μM; read-out: % Inhibition of Control Specific Binding
[5] = target: receptors (Bioprint panel) (Homo sapiens, UniProt P31645); assay: biochemical; format: binding; conditions: 5-HT transporter (h) (antagonist radioligand); 10 μM; read-out: % Inhibition of Control Specific Binding
[6] = target: receptors (Bioprint panel) (Homo sapiens, UniProt P32245); assay: biochemical; format: binding; conditions: MELANOCORTIN MC4 (h) (agonist radioligand); 10 μM; read-out: % Inhibition of Control Specific Binding
[7] = target: receptors (Bioprint panel) (Homo sapiens, UniProt P34998); assay: biochemical; format: binding; conditions: COR[…] FACTOR CRF1 (h) (agonist radioligand); 10 μM; read-out: % Inhibition of Control Specific Binding
[8] = target: receptors (Bioprint panel) (Homo sapiens, UniProt Q99705); assay: biochemical; format: binding; conditions: MELANIN-CONCENTRATING-HORMONE MCH1 (h) (agonist radioligand); 10 μM; read-out: % Inhibition of Control Specific Binding
[9] = target: receptors (Bioprint panel) (Homo sapiens, UniProt Q9H3N8); assay: biochemical; format: binding; conditions: HISTAMINE H4 (h) (agonist radioligand); 10 μM; read-out: % Inhibition of Control Specific Binding
[10] = target: receptors (Bioprint panel) (Homo sapiens, UniProt Q9Y271); assay: biochemical; format: binding; conditions: read-out: % Inhibition of Control Specific Binding
[11] = target: receptors (Bioprint panel) (Rattus norvegicus, UniProt P28564); assay: biochemical; format: binding; conditions: read-out: % Inhibition of Control Specific Binding
[12] = target: receptors (Bioprint panel) (Rattus norvegicus, UniProt P35439); assay: biochemical; format: binding; conditions: read-out: % Inhibition of Control Specific Binding
[13] = target: receptors (Bioprint panel) (Rattus norvegicus, UniProt Q02294); assay: biochemical; format: binding; conditions: Ca2+ channel (N) (antagonist radioligand); 10 μM; read-out: % Inhibition of Control Specific Binding
[14] = target: norepinephrine transporter (h) (Homo sapiens, UniProt P23975); assay: biochemical; format: binding
PPARgamma (h) = PPARgamma (h) (Homo sapiens, UniProt P37231); assay: Bioprint radioligand binding assay
Wi38 = assay: OncoPanel normal cell proliferation assay (3-day); format: cell-based; conditions: Homo sapiens, WI-38, 72 h, Wi38, lung fibroblast, 3-day incubation
hSMYD2 = hSMYD2 (Homo sapiens, UniProt Q9NRG4); conditions: read-out: Reference: (IC50 not given); cited from earlier work
MLL2(h) complex = conditions: read-out: Reference: (IC50 not given); cited from earlier work
[15] = read-out: % inhibition of control specific binding

Chain of PPARgamma (h) (P37231 whole entry): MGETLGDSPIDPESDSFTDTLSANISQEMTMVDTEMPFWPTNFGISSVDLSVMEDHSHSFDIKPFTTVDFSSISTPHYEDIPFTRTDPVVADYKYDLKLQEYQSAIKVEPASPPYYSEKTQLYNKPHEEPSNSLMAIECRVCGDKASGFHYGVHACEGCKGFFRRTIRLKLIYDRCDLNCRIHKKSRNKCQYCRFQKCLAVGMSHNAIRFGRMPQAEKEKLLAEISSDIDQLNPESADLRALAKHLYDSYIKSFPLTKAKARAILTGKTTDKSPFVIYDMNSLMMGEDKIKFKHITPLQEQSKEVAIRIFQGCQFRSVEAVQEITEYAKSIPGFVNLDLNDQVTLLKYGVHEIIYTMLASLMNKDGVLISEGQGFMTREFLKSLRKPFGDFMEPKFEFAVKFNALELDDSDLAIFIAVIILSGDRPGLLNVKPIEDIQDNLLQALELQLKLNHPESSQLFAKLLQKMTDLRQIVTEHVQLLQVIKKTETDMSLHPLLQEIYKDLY
Chain of norepinephrine transporter (h) (P23975 whole entry): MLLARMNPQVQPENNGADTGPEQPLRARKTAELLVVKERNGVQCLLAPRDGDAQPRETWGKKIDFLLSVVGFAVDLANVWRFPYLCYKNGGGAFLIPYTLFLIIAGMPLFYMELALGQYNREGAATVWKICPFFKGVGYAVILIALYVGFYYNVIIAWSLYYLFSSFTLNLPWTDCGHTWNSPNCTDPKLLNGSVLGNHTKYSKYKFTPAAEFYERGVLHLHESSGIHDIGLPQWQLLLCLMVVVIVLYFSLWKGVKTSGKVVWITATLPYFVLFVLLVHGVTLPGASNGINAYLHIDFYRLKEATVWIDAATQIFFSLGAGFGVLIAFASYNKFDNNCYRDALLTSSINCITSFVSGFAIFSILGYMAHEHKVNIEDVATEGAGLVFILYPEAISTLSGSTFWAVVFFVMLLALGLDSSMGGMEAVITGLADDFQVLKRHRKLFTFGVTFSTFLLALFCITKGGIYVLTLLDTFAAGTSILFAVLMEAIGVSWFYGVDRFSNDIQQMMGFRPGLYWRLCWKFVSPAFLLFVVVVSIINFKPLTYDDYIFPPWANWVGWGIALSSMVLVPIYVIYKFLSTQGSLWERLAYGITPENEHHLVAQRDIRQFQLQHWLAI
Chain of receptors (Bioprint panel) (Homo sapiens, UniProt P25929) (P25929 whole entry): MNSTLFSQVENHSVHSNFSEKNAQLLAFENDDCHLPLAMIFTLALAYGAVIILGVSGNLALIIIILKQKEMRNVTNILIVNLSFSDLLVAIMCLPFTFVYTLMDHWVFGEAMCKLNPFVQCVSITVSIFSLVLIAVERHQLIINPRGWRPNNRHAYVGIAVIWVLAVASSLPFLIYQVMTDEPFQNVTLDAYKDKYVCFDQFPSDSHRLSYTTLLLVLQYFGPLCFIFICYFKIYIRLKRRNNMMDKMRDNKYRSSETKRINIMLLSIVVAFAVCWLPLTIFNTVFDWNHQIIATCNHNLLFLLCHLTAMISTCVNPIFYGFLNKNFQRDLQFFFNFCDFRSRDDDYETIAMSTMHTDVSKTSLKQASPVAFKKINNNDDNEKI
Chain of receptors (Bioprint panel) (Rattus norvegicus, UniProt Q02294) (Q02294 whole entry): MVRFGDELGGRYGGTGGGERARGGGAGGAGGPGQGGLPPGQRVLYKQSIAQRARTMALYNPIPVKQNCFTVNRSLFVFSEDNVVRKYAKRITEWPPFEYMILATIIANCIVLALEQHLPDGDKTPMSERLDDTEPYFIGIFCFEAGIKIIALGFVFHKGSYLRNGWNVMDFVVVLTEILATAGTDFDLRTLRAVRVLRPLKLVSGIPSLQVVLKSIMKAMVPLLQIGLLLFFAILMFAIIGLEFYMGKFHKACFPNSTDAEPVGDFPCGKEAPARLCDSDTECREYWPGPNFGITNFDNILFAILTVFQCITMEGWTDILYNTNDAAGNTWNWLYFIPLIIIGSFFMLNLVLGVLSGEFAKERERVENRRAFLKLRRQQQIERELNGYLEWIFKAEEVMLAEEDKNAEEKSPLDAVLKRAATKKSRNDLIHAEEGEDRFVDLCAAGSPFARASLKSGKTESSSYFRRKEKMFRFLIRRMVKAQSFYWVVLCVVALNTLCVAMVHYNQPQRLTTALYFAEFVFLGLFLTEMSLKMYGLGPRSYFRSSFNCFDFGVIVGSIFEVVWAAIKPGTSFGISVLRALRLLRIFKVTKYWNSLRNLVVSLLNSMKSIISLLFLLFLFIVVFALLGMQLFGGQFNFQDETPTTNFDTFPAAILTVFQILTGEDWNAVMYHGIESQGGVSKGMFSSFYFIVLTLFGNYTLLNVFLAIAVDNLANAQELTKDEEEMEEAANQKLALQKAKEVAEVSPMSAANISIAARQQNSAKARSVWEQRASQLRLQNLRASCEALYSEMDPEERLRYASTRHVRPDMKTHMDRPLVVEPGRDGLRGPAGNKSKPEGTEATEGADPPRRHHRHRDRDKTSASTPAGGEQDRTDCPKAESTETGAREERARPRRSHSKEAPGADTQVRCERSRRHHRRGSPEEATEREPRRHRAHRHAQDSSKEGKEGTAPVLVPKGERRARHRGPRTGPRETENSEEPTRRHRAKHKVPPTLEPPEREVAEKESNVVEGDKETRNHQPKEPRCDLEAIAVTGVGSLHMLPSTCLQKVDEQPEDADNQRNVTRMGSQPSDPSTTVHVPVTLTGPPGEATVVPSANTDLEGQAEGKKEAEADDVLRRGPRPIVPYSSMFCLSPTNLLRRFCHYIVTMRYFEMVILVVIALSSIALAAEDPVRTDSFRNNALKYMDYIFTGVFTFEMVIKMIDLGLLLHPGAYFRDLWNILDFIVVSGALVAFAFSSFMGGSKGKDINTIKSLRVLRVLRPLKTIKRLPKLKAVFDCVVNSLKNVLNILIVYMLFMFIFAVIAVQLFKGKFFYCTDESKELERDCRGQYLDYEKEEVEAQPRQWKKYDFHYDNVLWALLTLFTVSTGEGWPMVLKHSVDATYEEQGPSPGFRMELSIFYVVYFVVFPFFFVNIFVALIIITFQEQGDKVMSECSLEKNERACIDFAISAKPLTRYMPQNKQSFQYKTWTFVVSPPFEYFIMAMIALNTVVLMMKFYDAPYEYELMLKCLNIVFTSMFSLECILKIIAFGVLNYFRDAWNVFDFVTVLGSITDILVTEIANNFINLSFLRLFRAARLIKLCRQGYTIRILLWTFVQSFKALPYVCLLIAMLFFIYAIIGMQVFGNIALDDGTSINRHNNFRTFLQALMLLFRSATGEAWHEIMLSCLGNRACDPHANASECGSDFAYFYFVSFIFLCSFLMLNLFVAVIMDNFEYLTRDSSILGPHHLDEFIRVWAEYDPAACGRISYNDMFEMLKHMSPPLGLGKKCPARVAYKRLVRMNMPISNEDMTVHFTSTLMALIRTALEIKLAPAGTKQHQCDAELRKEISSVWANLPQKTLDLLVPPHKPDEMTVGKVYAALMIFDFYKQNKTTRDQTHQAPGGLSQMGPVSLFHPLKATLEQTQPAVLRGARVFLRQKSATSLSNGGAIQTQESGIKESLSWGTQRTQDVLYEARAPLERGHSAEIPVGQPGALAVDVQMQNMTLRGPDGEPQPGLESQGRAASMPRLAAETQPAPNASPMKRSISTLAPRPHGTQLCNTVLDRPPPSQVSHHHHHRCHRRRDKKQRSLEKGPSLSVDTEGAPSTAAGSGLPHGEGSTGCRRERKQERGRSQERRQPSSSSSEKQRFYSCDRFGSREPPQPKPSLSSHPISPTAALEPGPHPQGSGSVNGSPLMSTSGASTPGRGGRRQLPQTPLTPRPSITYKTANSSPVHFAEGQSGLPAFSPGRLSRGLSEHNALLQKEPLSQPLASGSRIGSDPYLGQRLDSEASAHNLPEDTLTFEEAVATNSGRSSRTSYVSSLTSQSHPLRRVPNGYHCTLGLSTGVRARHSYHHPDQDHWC
Chain of receptors (Bioprint panel) (Homo sapiens, UniProt P03372) (P03372 whole entry): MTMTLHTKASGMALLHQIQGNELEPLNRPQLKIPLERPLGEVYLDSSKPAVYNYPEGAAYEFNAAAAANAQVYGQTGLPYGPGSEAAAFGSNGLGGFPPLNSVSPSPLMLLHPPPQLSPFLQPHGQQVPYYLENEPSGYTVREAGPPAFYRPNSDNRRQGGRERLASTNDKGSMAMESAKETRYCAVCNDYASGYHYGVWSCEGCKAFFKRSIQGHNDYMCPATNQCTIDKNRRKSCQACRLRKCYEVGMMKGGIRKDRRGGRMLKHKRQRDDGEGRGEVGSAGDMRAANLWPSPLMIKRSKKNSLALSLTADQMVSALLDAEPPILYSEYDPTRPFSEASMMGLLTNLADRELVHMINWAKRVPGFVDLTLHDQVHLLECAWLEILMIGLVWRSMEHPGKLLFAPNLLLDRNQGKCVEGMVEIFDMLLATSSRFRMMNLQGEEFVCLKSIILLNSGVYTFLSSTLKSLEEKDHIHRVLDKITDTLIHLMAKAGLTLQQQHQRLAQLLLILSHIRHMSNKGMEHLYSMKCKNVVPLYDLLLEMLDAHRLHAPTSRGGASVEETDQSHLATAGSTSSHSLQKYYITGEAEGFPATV
Chain of receptors (Bioprint panel) (Homo sapiens, UniProt P34998) (P34998 24-415): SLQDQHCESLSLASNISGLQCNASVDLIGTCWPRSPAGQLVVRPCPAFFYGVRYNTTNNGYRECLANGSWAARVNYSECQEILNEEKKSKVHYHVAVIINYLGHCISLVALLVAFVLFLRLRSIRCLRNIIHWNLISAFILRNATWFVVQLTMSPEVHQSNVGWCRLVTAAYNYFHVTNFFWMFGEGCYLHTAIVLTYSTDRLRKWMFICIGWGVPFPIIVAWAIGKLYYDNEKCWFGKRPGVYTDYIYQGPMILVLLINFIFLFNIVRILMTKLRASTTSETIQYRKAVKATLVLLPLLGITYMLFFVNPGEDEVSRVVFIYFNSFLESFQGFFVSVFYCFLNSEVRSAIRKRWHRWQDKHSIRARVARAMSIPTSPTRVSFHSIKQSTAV

SMILES: CC(C)=CCC[C@H](CO)[C@@H]1CC[C@@H](C)c2c1cc(C)c(O)c2O [Compound 1, 7,8,18-trihydroxyserrulat-14-ene]
- inhibition at 10 µM [1]: 40%
- inhibition at 10 µM [2]: 7%
- inhibition at 10 µM [3]: 62%
- inhibition at 10 µM [4]: 29%
- inhibition at 10 µM [5]: 56%
- inhibition at 10 µM [6]: 37%
- inhibition at 10 µM [7]: 34%
- inhibition at 10 µM [8]: -5%
- inhibition at 10 µM [9]: 23%
- inhibition at 10 µM [10]: 10%
- inhibition at 10 µM [11]: 42%
- inhibition at 10 µM [12]: 4%
- inhibition at 10 µM [13]: 5%
- inhibition at 10 µM ([14]; norepinephrine transporter (h) (antagonist radioligand), read-out: % Inhibition of Control Specific Binding): 76%
- inhibition at 10 µM [14, 15]: 76%
- inhibition at 10 µM (PPARgamma (h); PPARgamma (h) (agonist radioligand), read-out: % Inhibition of Control Specific Binding): 91%
- inhibition at 10 µM (PPARgamma (h); [15]): 91%
- pEC50 (Wi38; read-out: Cell Count EC50): 5.26
- GI50 (Wi38; read-out: Cell Count GI50): 5.92 µM
- pIC50 (Wi38; read-out: Cell Count IC50): 4.98

SMILES: Nc1ncnc2c1ncn2[C@@H]1O[C@H](CSCC[C@H](N)C(=O)O)[C@@H](O)[C@H]1O [SAH]
- pIC50 (hSMYD2): 6.80
- pIC50 (MLL2(h) complex): 6.01
